Earlier results as cited in patent publication US20190216952A1, “Method for substantiating validating products for environmental safety” (priority 2018, published 2019).

Columns and labels:
coral [1] = conditions: Danovaro et al 2008
coral [2] = conditions: Downs et al

SMILES	coral bleaching/death (coral [1])	toxicity in coral (coral [2])
CCCCOC(=O)c1ccc(O)cc1 [Butylparaben]	caused coral bleaching/death	
CCCCC(CC)COC(=O)C=Cc1ccc(OC)cc1 (centres unmarked) [Octinoxate]	caused coral bleaching/death	
COc1ccc(C(=O)c2ccccc2)c(O)c1 [Oxybenzone]	caused coral bleaching/death	toxicity
Cc1ccc(C=C2C(=O)C3(C)CCC2C3(C)C)cc1 (centres unmarked) [4-Methylbenzylidene Camphor]	caused coral bleaching/death	
